How the values were obtained:
Mus musculus [1] = experiment: Mean survival time which expresses the antimalarial activity of compound was measured against Plasmodium berghei in mice (Mus musculus) at 20 mg/kg dose; type: functional
Mus musculus [2] = experiment: (§1) Mean survival time which expresses the antimalarial activity of compound was measured against Plasmodium berghei in mice (Mus musculus) at 640 mg/kg dose; type: functional
Mus musculus [3] = experiment: Mean survival time which expresses the antimalarial activity of compound was measured against Plasmodium berghei in mice (Mus musculus) at 40 mg/kg dose; type: functional
Mus musculus [4] = experiment: Mean survival time which expresses the antimalarial activity of compound was measured against Plasmodium berghei in mice (Mus musculus) a 160 mg/kg dose; type: functional
Mus musculus [5] = experiment: (§2) Mean survival time which expresses the antimalarial activity of compound was measured against Plasmodium berghei in mice (Mus musculus) at 320 mg/kg dose; type: functional
Mus musculus [6] = experiment: Mean survival time which expresses the antimalarial activity of compound was measured against Plasmodium berghei in mice (Mus musculus) at 80 mg/kg dose; type: functional
Cricetinae gen. sp. [7] = experiment: (§3) G index is the relative activity to that of glucantime was measured on Leishmania donovani in hamsters.; type: functional, hamster
Mus musculus [8] = experiment: (§4) Mean survival time which expresses the antimalarial activity of compound was measured against Plasmodium berghei in mice (Mus musculus) at 160 mg/kg dose; type: functional
Plasmodium cynomolgi = experiment: Radical curative activity in presence of chloroquine against Plasmodium cynomolgi infected Rhesus monkey at 1.3 mg/kg; type: functional
Mus musculus [9] = experiment: as §1; type: ADME, organism-based; parameters: dose 640 mg/kg; conditions: in vivo
Cricetinae gen. sp. [10] = experiment: as §3; type: functional, Cricetulus griseus
Mus musculus [11] = experiment: as §4; type: ADME, organism-based; parameters: dose 160 mg/kg; conditions: in vivo
Mus musculus [12] = experiment: as §2; type: ADME, organism-based; parameters: dose 320 mg/kg; conditions: in vivo
Mus musculus [13] = experiment: Mean survival time which expresses the antimalarial activity of compound was measured against Plasmodium berghei in mice (Mus musculus) at […] mg/kg dose; type: functional

Compound	Delta MST (Mus musculus [1])	Delta MST (Mus musculus [2])	Delta MST (Mus musculus [3])	Relative activity (Cricetinae gen. sp. [7])	Delta MST (Mus musculus [8])	further results
C=Cc1cc(C)c2cc(OC)cc(NC(C)CCCN)c2n1 (centres undefined)	0 days	6.2 days	0 days			Delta MST (Mus musculus [4]): 0.4 days; Delta MST (Mus musculus [5]): 2.2 days; Delta MST (Mus musculus [6]): 0.6 days
CCc1cc(C)nc2c(NCCCCCCN(CC)CC)cc(OC)cc12		4.9 days	1.3 days	29.2	2.7 days	
CCc1cc(C)nc2c(NC(C)CCCN)cc(OC)cc12 (centres undefined)	1.7 days	10.3 days	2.3 days		5.1 days	Delta MST (Mus musculus [5]): 7.7 days; Delta MST (Mus musculus [6]): 3.7 days
CCc1cc(C)c2cc(OC)cc(NC(C)CCCN)c2n1 (centres undefined)				8.99		Cured (Plasmodium cynomolgi): 90%
CCN(CC)CCCCCCNc1cc(OC)cc2c(C)cc(CCBr)nc12			0.3 days		0 days	Deaths (Mus musculus [9]): 5; Relative activity (Cricetinae gen. sp. [10]): 2.6; Deaths (Mus musculus [11]): 5
CCc1cc(C)c2cc(OC)cc(NCCCCCCN(CC)CC)c2n1		0.7 days	0.3 days	130	0.3 days	
COc1cc(NC(C)CCCN)c2ncccc2c1 (centres undefined) [PRIMAQUINE]	4 days		5 days	2.1		Deaths (Mus musculus [9]): 5; Deaths (Mus musculus [12]): 5; Delta MST (Mus musculus [13]): 9.4 days; Deaths (Mus musculus [11]): 2

— ChEMBL document CHEMBL1121593, “Synthesis of 2,4-disubstituted 6-methoxy-8-aminoquinoline analogues as potential antiparasitics” (J Med Chem, 1980)
